Experimental data: PubChem BioAssay (NCI)
“And” between values parts separate entries of the source, which are not always exact repeats. Equal entries are not always repeated.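 Grown in 96-well plates, cells were treated for 48 hours with each compound at five concentrations. Insufficient inhibition: endpoint recorded as highest concentration tested. Here, GI50 denotes the concentration required for 50% inhibition of growth. TGI: total growth inhibition.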

Legend:
Experiment in all cases: NCI anticancer screen, dose series, 48 h
BT-549 breast = tested on: BT-549 breast
SNB-78 CNS = tested on: SNB-78 CNS
DMS 114 small cell lung = tested on: DMS 114 small cell lung
M19-MEL melanoma = tested on: M19-MEL melanoma
XF 498 CNS = tested on: XF 498 CNS
KM20L2 colon = tested on: KM20L2 colon
MDA-N = tested on: MDA-N
RXF-631 renal = tested on: RXF-631 renal
HOP-18 NSCLC = tested on: HOP-18 NSCLC

SMILES | GI50 (BT-549 breast) | TGI (BT-549 breast) | TGI (DMS 114 small cell lung) [µM] | TGI (M19-MEL melanoma) [µM] | TGI (XF 498 CNS) [µM] | TGI (KM20L2 colon) [µM] | further results
CN1CCN(c2ccc(NC3=CC(=O)c4ncncc4C3=O)cc2)CC1 | 1.6 µM | 3.04 µM |  |  |  |  | 
Cc1cc(N(CCNc2ccnc3cc(Cl)ccc23)Cc2ccc3c(c2)OCO3)nc(N2CCCC2)n1 | 1.82 µM | 4.27 µM |  |  |  |  | 
COC(=O)CC1=C(C)/C(=C/c2[nH]c(-c3ccc[nH]3)cc2OC)N=C1C | 0.196 µM | 4.29 µM |  |  |  |  | 
CN1CCN(c2nc(N)c(Br)c(Cl)n2)CC1 |  |  | > 100 | > 100 | > 100 | > 100 | TGI (SNB-78 CNS): > 100 µM
CCC(c1ccccc1)c1cc(C(C)(C)C)cc(C(C)(C)C)c1O (configuration not stated) |  | 33.4 µM |  |  |  |  | TGI (MDA-N): 30.9 µM
CSc1nc2c(c(=O)n1C)C(c1ccccc1)C1=C(N2)/C(=C/c2ccccc2)CCC1 (configuration not stated) | 11.9 µM | > 100 µM |  |  |  |  | 
CCOC(=O)C1C(=O)CC(=O)C2CCCCC21 (configuration not stated) |  |  | > 100 |  | > 100 |  | TGI (SNB-78 CNS): > 100 µM; TGI (RXF-631 renal): > 100 µM
CC(=O)OCC1OC(n2c(=S)n(-c3ccccc3)c(=O)c3cc(Br)ccc32)C(OC(C)=O)C1OC(C)=O (configuration not stated) |  |  | > 100 | > 100 | > 100 | > 100 | TGI (SNB-78 CNS): > 100 µM; TGI (HOP-18 NSCLC): > 100 µM
C(=N\Nc1ccc2ccccc2n1)/c1ccccn1 | 1.1 µM | > 38.9 µM |  |  |  |  | 
CC/C=C\C[C@H]1C/C=C2/C(=O)C(Cl)=C[C@@H]2C/C=C\CCCC(=O)O1 | 0.524 µM | 1.21 µM |  |  |  |  | 
COc1ccc(-c2[nH]ncc2Nc2cc(OC)c(OC)c(OC)c2)cc1 | 9.99 µM | > 89.6 µM |  |  |  |  | 
O=C(CI)Nc1ccc(Br)cc1 | 1.64 µM | 3.14 µM |  |  |  |  | 
N=C(CC(=O)Nc1ccccn1)c1ccccc1 |  | > 100 µM |  |  |  |  | TGI (MDA-N): > 100 µM
O=C1NC(=NCCc2ccc(Br)cc2)S/C1=C\c1ccc2ncccc2c1 | > 21.6 µM | > 25 µM |  |  |  |  | 
N#CC1=C(N)OC2=C(CCOc3c2ccc2ccccc32)C1c1ccc(Br)cc1 (configuration not stated) | > 100 µM | > 100 µM |  |  |  |  | 
CCCCOC(=O)NC(=O)c1cn(CCCOC(=O)CCCCCCCCC(=O)OCCCn2cc(C(=O)NC(=O)OCCCC)c(=O)n(C)c2=O)c(=O)n(C)c1=O |  |  | > 100 | > 100 | > 100 | > 100 | TGI (SNB-78 CNS): > 100 µM; TGI (RXF-631 renal): > 100 µM
CC12CCc3ccccc3C1=NNC(=O)C2 (configuration not stated) |  |  | > 100 | > 100 | > 100 | > 100 | TGI (SNB-78 CNS): > 100 µM; TGI (HOP-18 NSCLC): > 100 µM
COc1cc(O)c(C(=O)/C=C/c2ccc(OC)c(OCc3ccccc3)c2)c(OC)c1 |  |  |  | > 100 | > 100 | > 100 | TGI (SNB-78 CNS): 6.52 µM; TGI (HOP-18 NSCLC): > 100 µM
O=C1/C(=C/c2ccc(C(F)(F)F)cc2)COc2ccc(O)c(O)c21 | 1.86 µM | 3.58 µM |  |  |  |  | 
N#CC(/C(CCCC(=O)Nc1cccc([N+](=O)[O-])c1)=N\NC(=O)c1c(O)ccc2ccccc12)c1nc2ccccc2s1 (configuration not stated) |  |  | 34.5 | 46.6 | > 100 | > 100 | TGI (SNB-78 CNS): > 100 µM; TGI (HOP-18 NSCLC): > 100 µM

SMILES | GI50 (BT-549 breast) | TGI (BT-549 breast) | TGI (DMS 114 small cell lung) [µM] | TGI (M19-MEL melanoma) [µM] | TGI (XF 498 CNS) [µM] | TGI (KM20L2 colon) [µM] | further results
O=C(CCc1ccccc1)CC1OC(=O)C(Cl)=C1Cl (configuration not stated) |  |  |  | 33.8 | 41.4 | 26.5 | TGI (SNB-78 CNS): > 100 µM; TGI (HOP-18 NSCLC): 59.6 µM
CCS(=O)(=O)c1ccc(OC)c(Nc2ncc(-c3cccc(F)c3)o2)c1 | > 25 µM | > 25 µM |  |  |  |  | 
CN(CCCCCl)P(=O)(OCc1ccc([N+](=O)[O-])o1)OCC1OC(n2cc([N+](=O)[O-])c(=O)[nH]c2=O)CC1O (configuration not stated) | 46.2 µM | > 100 µM |  |  |  |  | 
COc1ccc(C(=O)C(C(=O)C(=O)NCCCNC(=O)C(=O)C(C(=O)c2ccc(OC)cc2)c2ccc(OC)cc2)c2ccc(OC)cc2)cc1 (configuration not stated) |  |  | > 100 |  | > 100 | > 100 | TGI (SNB-78 CNS): > 100 µM; TGI (HOP-18 NSCLC): > 100 µM
CC(=O)C1C(=O)C(=O)N(CCN2C(=O)C(=O)C(C(C)=O)C2=O)C1=O (configuration not stated) |  |  | > 100 | > 100 | > 100 | > 100 | TGI (HOP-18 NSCLC): > 100 µM; TGI (RXF-631 renal): > 100 µM
CCC(=O)Nc1nnc(Cc2ccc(OC)c(OC)c2)s1 | > 100 µM | > 100 µM |  |  |  |  | 
C=CCSC(C)=O |  | > 100 µM |  |  |  |  | TGI (MDA-N): > 100 µM
Cc1ccc(-c2nc3sc(C)cn3c2/C=C2\C(=O)Nc3ccc(Cl)cc32)cc1 | 15.3 µM | 37.1 µM |  |  |  |  | 
COc1ccc2nc3ccccc3c(NCCNCC(C)O)c2c1 (configuration not stated) | 1.61 µM | 5.73 µM |  |  |  |  | 
Cc1cc(N2CCOCC2)nc(NCc2cc(Nc3ccnc4cc(Cl)ccc34)ccc2F)n1 | 1.72 µM | 3.53 µM |  |  |  |  | 
O=C(C(=CN1CCN(C(=O)c2ccco2)C1=S)C(=O)c1ccccc1)c1ccccc1 | 9.96 µM | 26.4 µM |  |  |  |  | 
CN(C)N=Nc1ccc(S(N)(=O)=O)cc1 |  |  | > 100 | > 100 | > 100 | > 100 | TGI (HOP-18 NSCLC): > 100 µM
Cc1ccc(S(=O)(=O)C2CC2(Cl)Cl)cc1 (configuration not stated) |  |  | 39.8 | 67.7 | 45.2 | > 100 | TGI (RXF-631 renal): 50.8 µM
COc1cc(C(=O)n2nc(N)c3c(C)cc(C)nc32)cc(OC)c1OC | > 100 µM | > 100 µM |  |  |  |  | 
CNc1cc(-c2cccc(OC(F)(F)F)c2)nc2ccc(N3CCCC3)cc12 | 2.14 µM and 1.94 µM and 1.79 µM | 6.17 µM and 3.65 µM and 3.33 µM |  |  |  |  | 
CSc1nnc(C(C#N)C#N)nn1 |  |  | > 100 | > 100 | > 100 | > 100 | TGI (SNB-78 CNS): > 100 µM; TGI (RXF-631 renal): > 100 µM
COc1ccc(-c2c(-c3ccc(C#N)c(F)c3)nc(N3CCC(N)CC3)n(C)c2=O)cc1F | 14.6 µM | 30.6 µM |  |  |  |  | 
Cc1ccc(S(=O)(=O)NNS(C)(=O)=O)cc1 |  |  | > 100 | > 100 |  | > 100 | 
O=C1C=CC(=O)c2c1nc(CBr)[nH]c2=O |  |  |  |  |  |  | TGI (MDA-N): > 100 µM
